From PubChem BioAssay AID1963856 (Molecular Pharmacology Branch, DTP, NCI, 2024)

System: LG0567-F671-PDC KRAS tumor spheroid viability
Experiment: Anticancer human tumor LG0567-F671-PDC patient-derived lung adenocarcinoma cell line growth inhibition [KRAS2]
Details: spheroids with HUVEC and MSC; for viability, T/C: stronger effect = lower value
Outline: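 KRAS-mutant tumor cells were grown as spheroids with HUVEC endothelial cells and human MSCs as stroma. Targeted agents were tested alone and with KRAS pathway inhibitors. Doses started at or near clinical Cmax, or 10 microM, descending half-log.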

[1] = curve of first compound, second compound 0.1 µM
[2] = curve of first compound, second compound 0.316 µM
[3] = curve of first compound, second compound 1 µM
[4] = curve of first compound, second compound 3.16 µM
[5] = curve of first compound, second compound 10 µM
[6] = second compound 0.1 µM, first compound 0.0316 µM
[7] = second compound 0.1 µM, first compound 0.1 µM
[8] = second compound 0.1 µM, first compound 0.316 µM
[9] = second compound 0.1 µM, first compound 1 µM
[10] = second compound 0.1 µM, first compound 3.16 µM
[11] = second compound 0.1 µM, first compound 10 µM
[12] = second compound 0.316 µM, first compound 0.0316 µM
[13] = second compound 0.316 µM, first compound 0.1 µM
[14] = second compound 0.316 µM, first compound 0.316 µM
[15] = second compound 0.316 µM, first compound 1 µM
[16] = second compound 0.316 µM, first compound 3.16 µM
[17] = second compound 0.316 µM, first compound 10 µM
[18] = second compound 1 µM, first compound 0.0316 µM
[19] = second compound 1 µM, first compound 0.1 µM
[20] = second compound 1 µM, first compound 0.316 µM
[21] = second compound 1 µM, first compound 1 µM
[22] = second compound 1 µM, first compound 3.16 µM
[23] = second compound 1 µM, first compound 10 µM
[24] = second compound 3.16 µM, first compound 0.0316 µM
[25] = second compound 3.16 µM, first compound 0.1 µM
[26] = second compound 3.16 µM, first compound 0.316 µM
[27] = second compound 3.16 µM, first compound 1 µM
[28] = second compound 3.16 µM, first compound 3.16 µM
[29] = second compound 3.16 µM, first compound 10 µM
[30] = second compound 10 µM, first compound 0.0316 µM
[31] = second compound 10 µM, first compound 0.1 µM
[32] = second compound 10 µM, first compound 0.316 µM
[33] = second compound 10 µM, first compound 1 µM
[34] = second compound 10 µM, first compound 3.16 µM
[35] = second compound 10 µM, first compound 10 µM
[36] = second compound 0.1 µM, first compound 0.01 µM
[37] = second compound 0.316 µM, first compound 0.01 µM
[38] = second compound 1 µM, first compound 0.01 µM
[39] = second compound 3.16 µM, first compound 0.01 µM
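Also: drug exposure lasted seven days after spheroids formed for three days.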
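For viability, T/C in this document: 100% = DMSO vehicle control viability.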

SMILES | IC50 [1] | IC50 [2] | IC50 [3] | IC50 [4] | viability, T/C [6] | viability, T/C [7] | viability, T/C [8] | viability, T/C [9] | viability, T/C [10] | viability, T/C [12] | viability, T/C [13] | viability, T/C [14] | viability, T/C [15] | viability, T/C [16] | viability, T/C [18] | viability, T/C [19] | viability, T/C [20] | viability, T/C [21] | viability, T/C [22] | viability, T/C [24] | also measured
COc1cc(Nc2ncc3c(n2)-c2ccc(Cl)cc2C(c2c(F)cccc2OC)=NC3)ccc1C(=O)O + CC1OCC2(CCN(c3cnc(Sc4ccnc(N)c4Cl)c(N)n3)CC2)C1N | 204 nM | < 31.6 nM | < 31.6 nM | < 31.6 nM | 58.7% | 49.6% | 45.7% | 47.1% | 40.3% | 25.7% | 26% | 21.7% | 22.8% | 23.8% | 17.6% | 19.2% | 18.1% | 18.5% | 17.2% | 12.1% | IC50 [5]: < 31.6 nM; viability, T/C [11]: 31.7%; viability, T/C [17]: 18.8%; viability, T/C [23]: 14.9%; viability, T/C [25]: 8.31%; viability, T/C [26]: 8.93%; viability, T/C [27]: 8.9%; viability, T/C [28]: 4.29%; viability, T/C [29]: 5.34%; viability, T/C [30]: 4.83%; viability, T/C [31]: 3.93%; viability, T/C [32]: 3.68%; viability, T/C [33]: 3.68%; viability, T/C [34]: 3.65%; viability, T/C [35]: 4.21%
COC(=O)c1ccc2c(C(=Nc3ccc(N(C)C(=O)CN4CCN(C)CC4)cc3)c3ccccc3)c(O)[nH]c2c1 + CNCc1ccccc1-c1csc(C(C)Nc2nc(C)nc3cc(OC)c(OC)cc23)c1 | > 10000 nM | < 31.6 nM | 426 nM | < 31.6 nM | 66.3% | 57.4% | 57.2% | 59.2% | 65.4% | 50.6% | 45.5% | 39.7% | 53.6% | 29.4% | 52.5% | 48.5% | 52.8% | 46.9% | 2.38% | 1.05% | IC50 [5]: < 31.6 nM; viability, T/C [11]: 56.4%; viability, T/C [17]: 41.7%; viability, T/C [23]: 3.49%; viability, T/C [25]: 2.43%; viability, T/C [26]: 0.68%; viability, T/C [27]: 0.71%; viability, T/C [28]: 0.64%; viability, T/C [29]: 0.52%; viability, T/C [30]: 1.55%; viability, T/C [31]: 1.48%; viability, T/C [32]: 2.71%; viability, T/C [33]: 2.27%; viability, T/C [34]: 0.69%; viability, T/C [35]: 0.4%
CN(C)C/C=C/C(=O)Nc1cc2c(Nc3ccc(F)c(Cl)c3)ncnc2cc1O[C@H]1CCOC1 | – | – | – | – | – | – | – | – | – | – | – | – | – | – | – | – | – | – | – | – | viability, T/C (compound 0.000316 µM): 100% [middle of 5 runs]; viability, T/C (compound 0.001 µM): 90.1% [middle of 5 runs]; viability, T/C (compound 0.01 µM): 72.6% [middle of 5 runs]; viability, T/C (compound 0.0316 µM): 60.4% [middle of 5 runs]; viability, T/C (compound 0.1 µM): 60.7% [middle of 5 runs]; IC50 (curve of compound): > 100 nM
CC(C)NCC(C(=O)N1CCN(c2ncnc3c2C(C)CC3O)CC1)c1ccc(Cl)cc1 (configuration not stated) + CC1OCC2(CCN(c3cnc(Sc4ccnc(N)c4Cl)c(N)n3)CC2)C1N | < 31.6 nM | < 31.6 nM | < 31.6 nM | < 31.6 nM | 48.9% | 38.3% | 29.8% | 31.9% | 33.6% | 37.1% | 30.9% | 21.5% | 20.5% | 18.6% | 26.4% | 22.4% | 14.3% | 11.9% | 10% | 21.2% | IC50 [5]: < 31.6 nM; viability, T/C [11]: 36.5%; viability, T/C [17]: 16.6%; viability, T/C [23]: 6.25%; viability, T/C [25]: 17.3%; viability, T/C [26]: 10.9%; viability, T/C [27]: 5.23%; viability, T/C [28]: 4.49%; viability, T/C [29]: 3.72%; viability, T/C [30]: 6.83%; viability, T/C [31]: 7.98%; viability, T/C [32]: 5.46%; viability, T/C [33]: 3.11%; viability, T/C [34]: 2.15%; viability, T/C [35]: 1.82%
C=CC(=O)N1CCN(c2nc(OCC3CCCN3C)nc3c2CCN(c2cccc4cccc(C)c24)C3)CC1CC#N (configuration not stated) | – | – | – | – | – | – | – | – | – | – | – | – | – | – | – | – | – | – | – | – | viability, T/C (compound 0.0316 µM): 35.5% [middle of 17 runs]; viability, T/C (compound 0.1 µM): 31.3% [middle of 16 runs]; viability, T/C (compound 1 µM): 30.4% [middle of 17 runs]; IC50 (compound alone, run of 07/12/2021): < 31.6 nM; IC50 (compound alone, run of 07/19/2021): < 31.6 nM; IC50 (compound alone, run of 07/26/2021): < 31.6 nM
CC1COCCN1c1cc(-c2ccnn2C)c2ccnc(-c3ccn[nH]3)c2n1 (configuration not stated) + COc1cc2nc(C)nc(NC(C)c3cc(N)cc(C(F)(F)F)c3)c2cc1OC1CCOC1 | 219 nM | 79.1 nM | 67.7 nM | 14.4 nM | 60.8% | 50.1% | 56.2% | 41.2% | 15.7% | 70.7% | 46.7% | 23.8% | 15.3% | 36.7% | 59.6% | 44.2% | 36.2% | 16.9% | 18.4% | 37.9% | IC50 [5]: 46.1 nM; viability, T/C [36]: 91.9%; viability, T/C [37]: 84%; viability, T/C [38]: 79.3%; viability, T/C [39]: 55.5%; viability, T/C [25]: 21.8%; viability, T/C [26]: 10.1%; viability, T/C [27]: 4.98%; viability, T/C [28]: 24.5%; viability, T/C (second compound 10 µM, first compound 0.01 µM): 53.2%; viability, T/C [30]: 54.3%; viability, T/C [31]: 43.6%; viability, T/C [32]: 29.6%; viability, T/C [33]: 32.2%; viability, T/C [34]: 22.1%
CC1COCCN1c1cc(-c2ccnn2C)c2ccnc(-c3ccn[nH]3)c2n1 (configuration not stated) + C=CC(=O)N1CCN(c2nc(OCC3CCCN3C)nc3c2CCN(c2cccc4cccc(C)c24)C3)CC1CC#N | < 10 nM | < 10 nM | < 10 nM | < 10 nM | 21.2% | 17.4% | 12.7% | 10.8% | 10.4% | 19.4% | 15.6% | 11.3% | 12.1% | 10.7% | 21.4% | 16.7% | 13.9% | 13.9% | 13.7% | 22.6% | IC50 (curve of first compound, second compound 0.0316 µM): < 10 nM; viability, T/C (second compound 0.0316 µM, first compound 0.01 µM): 33.7%; viability, T/C (second compound 0.0316 µM, first compound 0.0316 µM): 23.5%; viability, T/C (second compound 0.0316 µM, first compound 0.1 µM): 17.1%; viability, T/C (second compound 0.0316 µM, first compound 0.316 µM): 15.6%; viability, T/C (second compound 0.0316 µM, first compound 1 µM): 14.1%; viability, T/C (second compound 0.0316 µM, first compound 3.16 µM): 12.7%; viability, T/C [36]: 26.9%; viability, T/C [37]: 24.7%; viability, T/C [38]: 26.8%; viability, T/C [39]: 26.2%; viability, T/C [25]: 20.8%; viability, T/C [26]: 17.3%; viability, T/C [27]: 13.3%; viability, T/C [28]: 12.2%
